# Source: patent publication US10844074B2, “Heterocycle compounds and uses thereof” (ZHEJIANG JIANFENG-YIEN BIOTECHNOLOGY CO., LTD., priority 2015, dated 2020)
# Target: BTK (Homo sapiens, UniProt Q06187)
# Assay: BTK Enzyme Assay
# Assay type: biochemical
# Details: 1 uM compound; read-out: BTK (% inh @ 1 uM)
# Procedure: The following TABLE II lists compounds representative of the invention and their activity in BTK assays. In these assays, the following grading was used: A: >30% inhibition @1 μM; B: <30% inhibition @1 μM.
# BTK, sequence (Q06187 whole entry): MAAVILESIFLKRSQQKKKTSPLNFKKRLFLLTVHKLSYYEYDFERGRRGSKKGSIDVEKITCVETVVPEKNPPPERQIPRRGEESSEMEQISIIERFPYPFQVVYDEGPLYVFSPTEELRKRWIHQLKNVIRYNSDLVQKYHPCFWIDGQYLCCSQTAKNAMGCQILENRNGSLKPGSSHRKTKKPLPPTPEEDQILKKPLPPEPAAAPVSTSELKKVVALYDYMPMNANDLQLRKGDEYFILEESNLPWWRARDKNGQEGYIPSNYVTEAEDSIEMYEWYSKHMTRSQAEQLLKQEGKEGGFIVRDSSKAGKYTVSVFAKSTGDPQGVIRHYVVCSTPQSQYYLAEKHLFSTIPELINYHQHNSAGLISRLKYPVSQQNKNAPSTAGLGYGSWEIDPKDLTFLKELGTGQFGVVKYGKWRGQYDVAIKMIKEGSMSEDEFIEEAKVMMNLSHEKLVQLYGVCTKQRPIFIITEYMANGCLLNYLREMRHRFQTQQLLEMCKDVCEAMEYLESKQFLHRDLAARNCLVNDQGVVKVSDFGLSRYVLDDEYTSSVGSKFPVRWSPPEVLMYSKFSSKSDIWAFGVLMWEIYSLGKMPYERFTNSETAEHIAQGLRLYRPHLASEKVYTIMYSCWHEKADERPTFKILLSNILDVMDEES
row,SMILES,inhibition at 1 µM [%]
1,"C=CC(=O)Nc1cc(N(C)c2nc(-c3c[nH]c4ccccc34)c3sccc3n2)c(OC)cc1N(C)CCN(C)C [Compound 53, N-[2-[2-(dimethylamino)ethyl-methyl-amino]-5-[[4-(1H-indol-3-yl)thieno[3,2-d]pyrimidin-2-yl]-methyl-amino]-4-methoxy-phenyl]prop-2-enamide]",> 30
2,"C=CC(=O)Nc1cc(NC2=NC(c3cccc(N)c3)C3SC=CC3=N2)c(OC)cc1N1CCN(C)CC1 (centres unmarked) [Compound 19, N-[5-[[4-(3-aminophenyl)-4,4a-dihydrothieno[3,2-d]pyrimidin-2-yl]amino]-4-methoxy-2-(4-methylpiperazin-1-yl)phenyl]prop-2-enamide]",< 30
3,"C=CC(=O)Nc1cc(NC2=NC(c3cccc(NC)c3)C3SC=CC3=N2)c(OC)cc1N1CCN(C)CC1 (centres unmarked) [Compound 7, N-[4-methoxy-5-[[4-[3-(methylamino)phenyl]-4,4a-dihydrothieno[3,2-d]pyrimidin-2-yl]amino]-2-(4-methylpiperazin-1-yl)phenyl]prop-2-enamide]",> 30
4,"C=CC(=O)Nc1cc(NC2=NC(c3cccc(N(C)C)c3)C3SC=CC3=N2)c(OC)cc1N(C)CCN1CCOCC1 (centres unmarked) [Compound 8, N-[5-[[4-[3-(dimethylamino)phenyl]-4,4a-dihydrothieno[3,2-d]pyrimidin-2-yl]amino]-4-methoxy-2-[methyl(2-morpholinoethyl)amino]phenyl]prop-2-enamide]",> 30
5,"C=CC(=O)Nc1cc(Nc2nc(-c3cn(C)c4ccccc34)c3sccc3n2)c(OC)cc1N(C)C [Compound 38, N-[2-(dimethylamino)-4-methoxy-5-[[4-(1-methylindol-3-yl)thieno[3,2-d]pyrimidin-2-yl]amino]phenyl]prop-2-enamide]",> 30
6,"C=CC(=O)Nc1cc(NC2=NC(c3cccc(N(C)C)c3)C3SC=CC3=N2)c(OC)cc1OCCN(C)C (centres unmarked) [Compound 12, N-[2-[2-(dimethylamino)ethoxy]-5-[[4-[3-(dimethylamino)phenyl]-4,4a-dihydrothieno[3,2-d]pyrimidin-2-yl]amino]-4-methoxy-phenyl]prop-2-enamide]",> 30
7,"C=CC(=O)Nc1cc(NC2=NC(c3cccc(NC)c3)C3SC=CC3=N2)c(OC)cc1N1CCC(C(=O)N(C)C)CC1 (centres unmarked) [Compound 17, 1-[5-methoxy-4-[[4-[3-(methylamino)phenyl]-4,4a-dihydrothieno[3,2-d]pyrimidin-2-yl]amino]-2-(prop-2-enoylamino)phenyl]-N,N-dimethyl-piperidine-4-carboxamide]",< 30
8,"C=CC(=O)Nc1cc(Nc2nc(-c3cccc(NC)c3)c3ccsc3n2)c(OC)cc1N(C)CCN(C)C [Compound 33, N-[2-[2-(dimethylamino)ethyl-methyl-amino]-4-methoxy-5-[[4-[3-(methylamino)phenyl]thieno[2,3-d]pyrimidin-2-yl]amino]phenyl]prop-2-enamide]",< 30
9,"C=CC(=O)Nc1cc(Nc2nc(-c3ccccc3)c3ccsc3n2)c(OC)cc1N(C)CCN(C)C [Compound 32, N-[2-[2-(dimethylamino)ethyl-methyl-amino]-4-methoxy-5-[(4-phenylthieno[2,3-d]pyrimidin-2-yl)amino]phenyl]prop-2-enamide]",> 30
10,"C=CC(=O)Nc1cc(NC2=NC(c3cccc(NC)c3)C3SC=CC3=N2)c(OC)cc1OCCN(C)C (centres unmarked) [Compound 13, N-[2-[2-(dimethylamino)ethoxy]-4-methoxy-5-[[4-[3-(methylamino)phenyl]-4,4a-dihydrothieno[3,2-d]pyrimidin-2-yl]amino]phenyl]prop-2-enamide]",> 30
11,"C=CC(=O)Nc1cc(N(C)c2nc(-c3cn(C)c4ccccc34)c3sccc3n2)c(OC)cc1N(C)CCN(C)C [Compound 54, N-[2-[2-(dimethylamino)ethyl-methyl-amino]-4-methoxy-5-[methyl-[4-(1-methylindol-3-yl)thieno[3,2-d]pyrimidin-2-yl]amino]phenyl]prop-2-enamide]",< 30
12,"C=CC(=O)Nc1cc(N(C)c2nc(-c3c[nH]c4ccccc34)c3sccc3n2)c(OC)cc1N1CCOCC1 [Compound 51, N-[5-[[4-(1H-indol-3-yl)thieno[3,2-d]pyrimidin-2-yl]-methyl-amino]-4-methoxy-2-morpholino-phenyl]prop-2-enamide]",< 30
13,"C=CC(=O)Nc1cc(NC2=NC(c3cccc(OC)c3)C3SC=CC3=N2)c(OC)cc1N1CCC(N(C)C)CC1 (centres unmarked) [Compound 20, N-[2-[4-(dimethylamino)-1-piperidyl]-4-methoxy-5-[[4-(3-methoxyphenyl)-4,4a-dihydrothieno[3,2-d]pyrimidin-2-yl]amino]phenyl]prop-2-enamide]",< 30
14,"C=CC(=O)Nc1cc(Nc2nc(-c3ccc(NC)cc3)c3sccc3n2)c(OC)cc1N(C)CC [Compound 39, N-[2-[ethyl(methyl)amino]-4-methoxy-5-[[4-[4-(methylamino)phenyl]thieno[3,2-d]pyrimidin-2-yl]amino]phenyl]prop-2-enamide]",> 30
15,"C=CC(=O)Nc1cc(Nc2nc(-c3cc[nH]c3)c3ccsc3n2)c(OC)cc1N1CCN(C)CC1 [Compound 47, N-[4-methoxy-2-(4-methylpiperazin-1-yl)-5-[[4-(1H-pyrrol-3-yl)thieno[2,3-d]pyrimidin-2-yl]amino]phenyl]prop-2-enamide]",< 30
16,"C=CC(=O)Nc1cc(Nc2nc(-c3ccccc3)c3ccsc3n2)c(OC)cc1N(C)CC [Compound 40, N-[2-[ethyl(methyl)amino]-4-methoxy-5-[(4-phenylthieno[2,3-d]pyrimidin-2-yl)amino]phenyl]prop-2-enamide]",< 30
17,"C=CC(=O)Nc1cc(NC2=NC(c3cccc(N(C)C)c3)C3SC=CC3=N2)c(OC)cc1N(C)C (centres unmarked) [Compound 4, N-[2-(dimethylamino)-5-[[4-[3-(dimethylamino)phenyl]-4,4a-dihydrothieno[3,2-d]pyrimidin-2-yl]amino]-4-methoxy-phenyl]prop-2-enamide]",> 30
18,"C=CC(=O)Nc1cc(NC2=NC(c3cccc(N(C)C)c3)C3SC=CC3=N2)c(OC)cc1N1CCC(C(=O)N(C)C)CC1 (centres unmarked) [Compound 16, 1-[4-[[4-[3-(dimethylamino)phenyl]-4,4a-dihydrothieno[3,2-d]pyrimidin-2-yl]amino]-5-methoxy-2-(prop-2-enoylamino)phenyl]-N,N-dimethyl-piperidine-4-carboxamide]",> 30

# The next lines start with the values.
row,inhibition at 1 µM [%],SMILES
1,> 30,"C=CC(=O)Nc1cc(Nc2nc(-c3cn(C)c4ccccc34)c3sccc3n2)c(OC)cc1N1CCN(C)CC1 [Compound 22, N-[4-methoxy-5-[[4-(1-methylindol-3-yl)thieno[3,2-d]pyrimidin-2-yl]amino]-2-(4-methylpiperazin-1-yl)phenyl]prop-2-enamide]"
2,< 30,"C=CC(=O)Nc1cc(Nc2nc(-c3cccc4cc[nH]c34)c3sccc3n2)c(OC)cc1N1CCN(C)CC1 [Compound 45, N-[5-[[4-(1H-indol-7-yl)thieno[3,2-d]pyrimidin-2-yl]amino]-4-methoxy-2-(4-methylpiperazin-1-yl)phenyl]prop-2-enamide]"
3,> 30,"C=CC(=O)Nc1cc(Nc2nc(-c3c[nH]c4ccccc34)c3sccc3n2)c(OC)cc1N1CCOCC1 [Compound 23, N-[5-[[4-(1H-indol-3-yl)thieno[3,2-d]pyrimidin-2-yl]amino]-4-methoxy-2-morpholino-phenyl]prop-2-enamide]"
4,> 30,"C=CC(=O)Nc1cc(Nc2nc(-c3ccn(C)c3)c3ccsc3n2)c(OC)cc1N1CCN(C)CC1 [Compound 46, N-[4-methoxy-2-(4-methylpiperazin-1-yl)-5-[[4-(1-methylpyrrol-3-yl)thieno[2,3-d]pyrimidin-2-yl]amino]phenyl]prop-2-enamide]"
5,> 30,"C=CC(=O)Nc1cc(Nc2nc(-c3c[nH]c4ccccc34)c3sccc3n2)c(OC)cc1N1CCN(C)CC1 [Compound 21, N-[5-[[4-(1H-indol-3-yl)thieno[3,2-d]pyrimidin-2-yl]amino]-4-methoxy-2-(4-methylpiperazin-1-yl)phenyl]prop-2-enamide]"
6,> 30,"C=CC(=O)Nc1cc(Nc2nc(-c3cc[nH]c3)c3sccc3n2)c(OC)cc1N1CCN(C)CC1 [Compound 49, N-[4-methoxy-2-(4-methylpiperazin-1-yl)-5-[[4-(1H-pyrrol-3-yl)thieno[3,2-d]pyrimidin-2-yl]amino]phenyl]prop-2-enamide]"
7,< 30,"C=CC(=O)Nc1cc(Nc2nc(-c3ccc(NC)cc3)c3sccc3n2)c(OC)cc1N1CCN(C)CC1 [Compound 25, N-[4-methoxy-5-[[4-[4-(methylamino)phenyl]thieno[3,2-d]pyrimidin-2-yl]amino]-2-(4-methylpiperazin-1-yl)phenyl]prop-2-enamide]"
8,> 30,"C=CC(=O)Nc1cc(Nc2nc(-c3ccc(NC(C)(C)C)cc3)c3sccc3n2)c(OC)cc1N1CCN(C)CC1 [Compound 27, N-[5-[[4-[4-(tert-butylamino)phenyl]thieno[3,2-d]pyrimidin-2-yl]amino]-4-methoxy-2-(4-methylpiperazin-1-yl)phenyl]prop-2-enamide]"
9,> 30,"C=CC(=O)Nc1cc(Nc2nc(-c3c[nH]c4ccccc34)c3sccc3n2)c(OC)cc1N1CCC(NC)CC1 [Compound 3, N-[5-[[4-(1H-indol-3-yl)thieno[3,2-d]pyrimidin-2-yl]amino]-4-methoxy-2-[4-(methylamino)-1-piperidyl]phenyl]prop-2-enamide]"
10,< 30,"C=CC(=O)Nc1cc(Nc2nc(-c3ccccc3NC)c3sccc3n2)c(OC)cc1N1CCN(C)CC1 [Compound 29, N-[4-methoxy-5-[[4-[2-(methylamino)phenyl]thieno[3,2-d]pyrimidin-2-yl]amino]-2-(4-methylpiperazin-1-yl)phenyl]prop-2-enamide]"
11,< 30,"C=CC(=O)Nc1cc(Nc2nc(-c3ccccc3NC)c3sccc3n2)c(OC)cc1N(C)CCN(C)C [Compound 31, N-[2-[2-(dimethylamino)ethyl-methyl-amino]-4-methoxy-5-[[4-[2-(methylamino)phenyl]thieno[3,2-d]pyrimidin-2-yl]amino]phenyl]prop-2-enamide]"
